Source: ChEMBL document CHEMBL1139605, “Novel ketal ligands for the glucocorticoid receptor: in vitro and in vivo activity” (Bioorg Med Chem Lett, 2005)

Columns and labels:
[1] = target: T1, Glucocorticoid receptor (Homo sapiens, UniProt P04150); test: Inhibition of human glucocorticoid receptor alpha isoform
T1 sequence (P04150 whole entry): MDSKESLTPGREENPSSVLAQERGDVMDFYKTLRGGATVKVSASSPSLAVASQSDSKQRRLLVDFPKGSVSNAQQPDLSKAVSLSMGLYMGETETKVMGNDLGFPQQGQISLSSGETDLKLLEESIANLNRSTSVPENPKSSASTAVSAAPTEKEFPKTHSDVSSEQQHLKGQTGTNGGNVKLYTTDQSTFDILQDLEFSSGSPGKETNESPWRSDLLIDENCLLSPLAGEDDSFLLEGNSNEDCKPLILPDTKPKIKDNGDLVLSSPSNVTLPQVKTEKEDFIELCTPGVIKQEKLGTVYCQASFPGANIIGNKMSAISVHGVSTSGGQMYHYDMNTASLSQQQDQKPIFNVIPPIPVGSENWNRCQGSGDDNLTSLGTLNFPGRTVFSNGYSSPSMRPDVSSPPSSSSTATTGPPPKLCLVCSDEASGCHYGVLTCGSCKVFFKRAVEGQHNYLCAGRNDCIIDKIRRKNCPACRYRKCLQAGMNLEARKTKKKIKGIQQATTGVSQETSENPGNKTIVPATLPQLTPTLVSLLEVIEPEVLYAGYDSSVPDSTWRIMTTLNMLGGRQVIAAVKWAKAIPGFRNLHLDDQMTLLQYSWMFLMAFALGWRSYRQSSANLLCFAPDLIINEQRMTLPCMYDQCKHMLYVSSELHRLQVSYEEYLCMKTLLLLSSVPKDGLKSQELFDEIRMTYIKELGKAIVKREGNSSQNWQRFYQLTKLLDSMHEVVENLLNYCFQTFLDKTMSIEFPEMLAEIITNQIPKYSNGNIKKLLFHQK

[2] = system: A549; test: Effective concentration for inhibition of interleukin-6 in human A549 lung carcinoma cell line using 47% radiolabeled Dexamethasone; format: functional, cell-based
[3] = species: Mus musculus; test: Effective concentration required for inhibition of interleukin-6 in mouse thioglycolate-elicited peritoneal exudate cell line using 57% radiolabeled Dexamethasone; format: functional

In the case of C=C[C@H]1CO[C@]2(CCC3=Cc4c(cnn4-c4ccc(F)cc4)C[C@@]32C)O1, the IC50 [1] is reported as 5.6 nM, the EC50 [2] is reported as 25 nM and the EC50 [3] is reported as 183 nM.
